Data taken from ChEMBL document CHEMBL5230110, “FabI (enoyl acyl carrier protein reductase) - A potential broad spectrum therapeutic target and its inhibitors” (Eur J Med Chem, 2020).
In brackets after ≈: the same amount, converted by molar mass.

Experiments:
Escherichia coli [1] = assay: Antibacterial activity against Escherichia coli assessed as bacterial growth inhibition at 50 uM measured after 24 hrs by 96-wellplate reader assay method; format: functional
[2] = test system: Mycobacterium tuberculosis; assay: Antimycobacterial activity against Mycobacterium tuberculosis H37Rv assessed as reduction in bacterial growth incubated for 7 days by dye based assay; format: functional; conditions: 168 h, time 7 day
Moraxella catarrhalis = assay: Antibacterial activity against Moraxella catarrhalis assessed as inhibition in bacterial growth measured after 24 hrs by broth microdilution method; format: functional
Staphylococcus aureus [3] = assay: Antibacterial activity against Staphylococcus aureus assessed as inhibition of bacterial growth measured after 24 hrs; format: functional
Staphylococcus aureus [4] = assay: Antibacterial activity against Methicillin-resistant Staphylococcus aureus ATCC 33592 assessed as bacterial growth inhibition measured after 24 hrs by broth dilution method; format: functional
[5] = Inhibition of Francisella tularensis FabI by addition of crotonyl-CoA as substrate preincubated for 10 mins followed by substrate addition in presence of NAD by spectrophotometer
Staphylococcus aureus [6] = assay: Antibacterial activity against Staphylococcus aureus ATCC 29213 assessed as bacterial growth inhibition incubated for 24 hrs by broth dilution method; format: functional
[7] = target: T1, Enoyl-[acyl-carrier-protein] reductase [NADPH] FabI (Staphylococcus aureus, UniProt Q6GI75); assay: Inhibition of Staphylococcus aureus FabI in the presence of NADH using crotonyl CoA as substrate by measuring NADH consumption rate
T1 sequence (Q6GI75 whole entry): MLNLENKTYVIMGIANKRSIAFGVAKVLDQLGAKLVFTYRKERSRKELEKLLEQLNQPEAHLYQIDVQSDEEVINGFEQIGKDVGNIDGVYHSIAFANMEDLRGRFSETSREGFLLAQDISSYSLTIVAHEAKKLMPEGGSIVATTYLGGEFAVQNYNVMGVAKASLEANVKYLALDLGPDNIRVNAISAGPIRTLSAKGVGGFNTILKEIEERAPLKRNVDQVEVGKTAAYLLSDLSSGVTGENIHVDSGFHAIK

Staphylococcus aureus [8] = assay: Antibacterial activity against Methicillin-resistant Staphylococcus aureus N315 assessed as reduction in bacterial growth; format: functional
[9] = target: T2, Enoyl-[acyl-carrier-protein] reductase [NADH] FabI (Escherichia coli K-12, UniProt P0AEK4); assay: Inhibition of Escherichia coli FabI in the presence of NADH using crotonyl CoA as substrate by measuring NADH consumption rate
T2 sequence (P0AEK4 whole entry): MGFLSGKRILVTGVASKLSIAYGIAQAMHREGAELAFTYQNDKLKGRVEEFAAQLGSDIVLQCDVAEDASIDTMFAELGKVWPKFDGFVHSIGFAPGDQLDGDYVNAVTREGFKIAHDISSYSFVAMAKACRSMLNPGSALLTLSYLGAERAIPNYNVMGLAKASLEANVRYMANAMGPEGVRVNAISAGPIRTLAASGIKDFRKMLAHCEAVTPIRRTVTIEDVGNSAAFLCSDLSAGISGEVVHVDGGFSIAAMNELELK

HeLa = assay: Cytotoxicity against human HeLa cells assessed as inhibition of cell growth incubated for 48 hrs by CCK8 assay; format: functional, cell-based
Staphylococcus aureus [10] = assay: Antibacterial activity against methicillin-sensitive Staphylococcus aureus assessed as reduction in bacterial growth incubated for 12 hrs by microdilution method; format: functional
Bacillus anthracis = assay: Antibacterial activity against Bacillus anthracis assessed as reduction in bacterial growth measured after 24 hrs by broth microdilution method; format: functional
Staphylococcus aureus [11] = assay: Bactericidal activity against methicillin-resistant Staphylococcus aureus measured after 24 hrs by sub-culturing; format: functional
Staphylococcus aureus [12] = assay: Antibacterial activity against methicillin resistant Staphylococcus aureus assessed as reduction in bacterial growth incubated for 12 hrs by microdilution method; format: functional
[13] = Inhibition of Bacillus anthracis enoyl ACP reductase assessed as inhibition of bacterial growth
[14] = Cytotoxicity against mouse MH-S cells; format: functional, cell-based
[15] = test system: Mycobacterium tuberculosis; assay: Antibacterial activity against Mycobacterium tuberculosis assessed as inhibition of […]; format: functional
Klebsiella pneumoniae [16] = assay: Antibacterial activity against Klebsiella pneumoniae BAA-1705 assessed as inhibition of bacterial growth measured after 24 hrs by micro-dilution broth method; format: functional
Escherichia coli [17] = assay: Antibacterial activity against Escherichia coli assessed as inhibition of bacterial growth measured after 24 hrs by micro-dilution broth method; format: functional
Pseudomonas aeruginosa = assay: Antibacterial activity against Pseudomonas aeruginosa assessed as bacterial growth inhibition measured after 24 hrs by micr-dilution broth method; format: functional
Enterobacter cloacae = assay: Antibacterial activity against Enterobacter cloacae assessed as inhibition of bacterial growth measured after 24 hrs by micro-dilution broth method; format: functional
Acinetobacter baumannii [18] = assay: Antibacterial activity against Acinetobacter baumannii W41979 assessed as inhibition of bacterial growth measured after 24 hrs by micro-dilution broth method; format: functional
Staphylococcus aureus [19] = assay: Antibacterial activity against Staphylococcus aureus assessed as inhibition of bacterial growth measured after 24 hrs by micro-dilution broth method; format: functional
Staphylococcus aureus [20] = assay: Antibacterial activity against methicillin-resistant Staphylococcus aureus ATCC 4330 assessed as reduction in bacterial growth; format: functional
Staphylococcus aureus [21] = assay: Antibacterial activity against Methicillin-sensitive Staphylococcus aureus ATCC 4330 assessed as reduction in bacterial growth; format: functional
[22] = target: T1, Enoyl-[acyl-carrier-protein] reductase [NADPH] FabI; assay: Inhibition of Staphylococcus aureus ATCC 29213 FabI in the presence of NADH using crotonyl CoA as substrate by measuring NADH consumption rate
Staphylococcus aureus [23] = assay: Antibacterial activity against quinolone-resistant Staphylococcus aureus; format: functional
Escherichia coli [24] = assay: Antibacterial activity against Escherichia coli BAA 2340 assessed as reduction in microbial growth inhibition; format: functional
Klebsiella pneumoniae [25] = assay: Antibacterial activity against Klebsiella pneumoniae BAA-1705; format: functional
Acinetobacter baumannii [26] = assay: Antibacterial activity against Acinetobacter baumannii W41979; format: functional

Oc1ccccc1Oc1ccccc1
MIC (Escherichia coli [1]): 3.7 µg/mL (≈ 19.9 µM)

Cc1ccc(Oc2ccccc2)c(O)c1
MIC (Escherichia coli [1]): 1 µg/mL (≈ 4.99 µM)

Oc1cc(F)ccc1Oc1ccccc1
MIC (Escherichia coli [1]): 0.6 µg/mL (≈ 2.94 µM)

Oc1cc(Cl)ccc1Oc1ccccc1
MIC (Escherichia coli [1]): 0.07 µg/mL (≈ 0.317 µM)

Cc1csc(C(C)(O)c2nnc(Nc3ccn(Cc4c(F)cccc4F)n3)s2)n1 (centres undefined)
MIC [2]: 0.2 µM (≈ 0.0869 µg/mL)

O=C(c1ccc(Cl)cc1O)N1CCc2c(n(Cc3ccc(O)cc3)c3ccccc23)C1
MIC (Moraxella catarrhalis): 2 µg/mL (≈ 4.62 µM)
MIC (Staphylococcus aureus [3]): 1 µg/mL (≈ 2.31 µM)

CC(c1ccc(Cl)c(Cl)c1)n1cnc2cc3c(cc21)CCC3 (centres undefined)
MIC (Staphylococcus aureus [4]): 6.3 µg/mL (≈ 19 µM)
IC50 [5]: 18 nM
MIC (Staphylococcus aureus [6]): 5.5 µg/mL (≈ 16.6 µM)

CC(c1ccc(Cl)c(Cl)c1)n1cnc2cc3c(cc21)CCCC3 (centres undefined)
MIC (Staphylococcus aureus [4]): 3.1 µg/mL (≈ 8.98 µM)
IC50 [5]: 14 nM
MIC (Staphylococcus aureus [6]): 3.1 µg/mL (≈ 8.98 µM)

COc1ccc(Cn2cnc3cc4c(cc32)CCC4)cc1C
MIC (Staphylococcus aureus [4]): > 12.5 µg/mL
IC50 [5]: 5 nM
MIC (Staphylococcus aureus [6]): > 12.5 µg/mL

Cc1ccc(Oc2coc(COc3ccccc3)cc2=O)c(C)c1
IC50 [7]: 380000 nM
MIC (Staphylococcus aureus [8]): 1.56 µg/mL (≈ 4.85 µM)

Cc1cc(Cl)ccc1Oc1coc(/C=C/c2ccc[nH]2)cc1=O
IC50 [9]: 140 nM

Cc1cc(Cl)ccc1Oc1c[nH]c(COc2ccccc2)cc1=O
IC50 [9]: 400 nM

Cc1cc(Cl)ccc1Oc1cn(C)c(COc2ccccc2)cc1=O
IC50 [9]: 110 nM

Cc1ccc(Oc2cn(C)c(COc3ccccc3)cc2=O)c(C)c1
IC50 [7]: 80000 nM
MIC (Staphylococcus aureus [8]): 0.049 µg/mL (≈ 0.146 µM)

O=[N+]([O-])c1ccc(Oc2ccc(Cl)cc2O)c(Cl)c1
EC50 (HeLa): 29.3 µg/mL (≈ 97.6 µM)
MIC (Staphylococcus aureus [10]): 0.1 µg/mL (≈ 0.333 µM)
MIC (Bacillus anthracis): < 0.1 µg/mL
MBC (Staphylococcus aureus [11]): 0.5 µg/mL (≈ 1.67 µM)
MIC (Staphylococcus aureus [12]): 0.3 µg/mL (≈ 1 µM)
IC50 [13]: 300 nM
EC50 [14]: 9.9 µg/mL (≈ 33 µM)

OB1c2ccccc2N=C(S)N1c1cccnc1
MIC [15]: 8 µg/mL (≈ 31.4 µM)

Cc1cc(=O)n(C)c2c3c4c(cc12)c(C)cc(=O)n4C(CN)CO3 (centres undefined)
MIC (Klebsiella pneumoniae [16]): 1 µg/mL (≈ 3.07 µM)
MIC (Escherichia coli [17]): 0.5 µg/mL (≈ 1.54 µM)
MIC (Pseudomonas aeruginosa): > 16 µg/mL
MIC (Enterobacter cloacae): 0.5 µg/mL (≈ 1.54 µM)
MIC (Acinetobacter baumannii [18]): 2 µg/mL (≈ 6.15 µM)
MIC (Staphylococcus aureus [19]): 0.05 µg/mL (≈ 0.154 µM)

Cc1c(CN(C)C(=O)/C=C/c2cnc3c(c2)C(C)(C)C(=O)N3)oc2ccccc12
MIC (Staphylococcus aureus [20]): 0.015 µg/mL (≈ 0.0385 µM)
MIC (Staphylococcus aureus [21]): 0.015 µg/mL (≈ 0.0385 µM)

Cc1cc(=O)n(C)c2c3c4c(cc12)c(C)cc(=O)n4CCO3
MIC (Klebsiella pneumoniae [16]): > 32 µg/mL
MIC (Escherichia coli [17]): > 32 µg/mL
MIC (Pseudomonas aeruginosa): > 32 µg/mL
MIC (Enterobacter cloacae): > 32 µg/mL
MIC (Acinetobacter baumannii [18]): 16 µg/mL (≈ 54 µM)
MIC (Staphylococcus aureus [19]): 0.06 µg/mL (≈ 0.202 µM)

CN1C(=O)[C@@H](c2cc(Cl)c(O)c(Cl)c2)NC(=O)[C@@H]2NC(=O)[C@@H](c3cc(Cl)c(O)c(Cl)c3)NC(=O)[C@H](NC(=O)C(=O)c3cc(Cl)c(O)c(Cl)c3)Cc3cc4ccc(cc4[nH]3)-c3cc2cc(c3O)Oc2ccc(cc2)C[C@H]1C(=O)N[C@@H](C(=O)O)c1ccc(O)cc1
IC50 [22]: 500 nM
MIC (Staphylococcus aureus [23]): 2 µg/mL (≈ 1.51 µM)

O=c1ccn(Cc2cccc(Br)c2)cc1C(O)c1c(Cl)cccc1Cl (centres undefined)
IC50 [9]: 430 nM

Cc1c(CN(C)C(=O)/C=C/c2cnc3c(c2)CC(N)C(=O)N3)oc2ccccc12.Cl (centres undefined)
MIC (Escherichia coli [24]): 4 µg/mL
MIC (Klebsiella pneumoniae [25]): 8 µg/mL
MIC (Staphylococcus aureus [6]): 0.031 µg/mL
MIC (Acinetobacter baumannii [26]): 4 µg/mL

Cc1c(CN(C)C(=O)/C=C/c2cnc3c(c2)C2(CCC2)C(=O)N3)sc2ccccc12
MIC (Staphylococcus aureus [20]): 0.015 µg/mL (≈ 0.0359 µM)
MIC (Staphylococcus aureus [21]): 0.015 µg/mL (≈ 0.0359 µM)
